Measured values as given in patent publication US9556179B2 (BRISTOL-MYERS SQUIBB COMPANY, priority 2012, dated 2017).

What follows are compounds tested against CK1ε (Homo sapiens (Human), UniProt P49674) (assay: CK1ε kinase assay (Caliper LABCHIP electrophoretic separation of fluoresceinated peptide substrate and product)). Conditions: 200 pM enzyme, 50 μM ATP, 22 hours at room temperature.
Type: biochemical
Method: CK1ε and CK1δ Kinase Assays
The kinase assay was performed in V-bottom 384-well plates. […] The reaction was incubated at room temperature for 22 hours and terminated by adding 45 μl of 35 mM EDTA to each sample. The reaction mixture was analyzed on the Caliper LABCHIP®3000 (Caliper, Hopkinton, Mass.) by electrophoretic separation of the unphosphorylated substrate and phosphorylated product. […] Compounds were dissolved at 10 mM in dimethylsulfoxide (DMSO) and evaluated at eleven concentrations. IC50 values were derived by non-linear regression analysis.

Chain of CK1ε (P49674 whole entry): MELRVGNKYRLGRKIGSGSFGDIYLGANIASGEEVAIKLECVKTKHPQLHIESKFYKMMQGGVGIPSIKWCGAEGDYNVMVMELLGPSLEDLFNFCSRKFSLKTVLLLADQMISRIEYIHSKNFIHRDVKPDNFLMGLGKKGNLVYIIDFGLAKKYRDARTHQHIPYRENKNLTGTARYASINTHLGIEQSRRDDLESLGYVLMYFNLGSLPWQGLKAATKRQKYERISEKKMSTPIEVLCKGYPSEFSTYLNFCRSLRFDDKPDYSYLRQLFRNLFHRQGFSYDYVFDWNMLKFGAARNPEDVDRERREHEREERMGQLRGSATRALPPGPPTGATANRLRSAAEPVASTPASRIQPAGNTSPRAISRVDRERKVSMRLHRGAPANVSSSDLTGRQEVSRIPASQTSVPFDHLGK

SMILES	IC50
Cc1nc(-c2ccc(F)cc2)c(-c2ccc3nc(NC(=O)c4cncnc4)cn3n2)n1C [Compound 350, N-(6-(4-(4-fluorophenyl)-1,2-dimethyl-1H-imidazol-5-yl)imidazo[1,2-b]pyridazin-2-yl)-5-pyrimidinecarboxamide]	2.32 nM
Cc1cc(C(=O)Nc2cn3nc(-c4c(-c5ccc(F)cc5)nc(C)n4C)ccc3n2)n[nH]1 [Compound 401, N-(6-(4-(4-fluorophenyl)-1,2-dimethyl-1H-imidazol-5-yl)imidazo[1,2-b]pyridazin-2-yl)-5-methyl-1H-pyrazole-3-carboxamide]	34.2 nM
O=C(Nc1cn2nc(-c3c(-c4ccc(F)cc4)ncn3C3CCN(C[C@@H](O)C(F)(F)F)CC3)ccc2n1)c1ccncc1 [Compound 7, (R)—N-(6-(4-(4-fluorophenyl)-1-(1-(3,3,3-trifluoro-2-hydroxypropyl)piperidin-4-yl)-1H-imidazol-5-yl)imidazo[1,2-b]pyridazin-2-yl)isonicotinamide]	1.77 nM
Cc1cc(C(=O)Nc2cn3nc(-c4c(-c5ccc(F)cc5)nc(C)n4C)ccc3n2)[nH]n1 [Compound 349, N-(6-(4-(4-fluorophenyl)-1,2-dimethyl-1H-imidazol-5-yl)imidazo[1,2-b]pyridazin-2-yl)-5-methyl-1H-pyrazole-3-carboxamide]	6.89 nM
O=C(Nc1cn2nc(-c3c(-c4ccc(F)cc4)ncn3CC(O)CO)ccc2n1)c1ccnc(F)c1 (stereo not shown) [Compound 235, N-(6-(1-(2,3-dihydroxypropyl)-4-(4-fluorophenyl)-1H-imidazol-5-yl)imidazo[1,2-b]pyridazin-2-yl)-2-fluoroisonicotinamide, dimethyl-formamide]	2.82 nM
Cc1nnsc1C(=O)Nc1cn2nc(-c3c(-c4ccc(F)cc4)nc(C)n3C)ccc2n1 [Compound 351, N-(6-(4-(4-fluorophenyl)-1,2-dimethyl-1H-imidazol-5-yl)imidazo[1,2-b]pyridazin-2-yl)-4-methyl-1,2,3-thiadiazole-5-carboxamide]	2.01 nM
O=C(Nc1cn2nc(-c3c(-c4ccc(F)cc4)ncn3C3CCN(C(=O)c4cocn4)CC3)ccc2n1)c1ccnc(F)c1 [Compound 43, 2-fluoro-N-(6-(4-(4-fluorophenyl)-1-(1-(oxazole-4-carbonyl)piperidin-4-yl)-1H-imidazol-5-yl)imidazo[1,2-6]pyridazin-2-yl)isonicotinamide]	0.952 nM
O=C(Nc1cn2nc(-c3c(-c4ccc(F)cc4)ncn3C3CCN(C(=O)CC(F)(F)F)CC3)ccc2n1)c1cc(F)nc(F)c1 [Compound 94, 2,6-difluoro-N-(6-(4-(4-fluorophenyl)-1-(1-(3,3,3-trifluoropropanoyl)piperidin-4-yl)-1H-imidazol-5-yl)imidazo[1,2-b]pyridazin-2-yl)isonicotinamide]	1.27 nM
O=C(Nc1cn2nc(-c3c(-c4ccc(F)cc4)ncn3C3CCN(Cc4ccc(O)nc4)CC3)ccc2n1)c1ccnc(F)c1 [Compound 30, 2-fluoro-N-(6-(4-(4-fluorophenyl)-1-(1-((6-hydroxypyridin-3-yl)methyl)piperidin-4-yl)-1H-imidazol-5-yl)imidazo[1,2-b]pyridazin-2-yl)isonicotinamide]	2 nM
CC(C)(C)OCCn1cnc(-c2ccc(F)cc2)c1-c1ccc2nc(NC(=O)c3ccnc(F)c3)cn2n1 [Compound 260, N-(6-(1-(2-tert-butoxyethyl)-4-(4-fluorophenyl)-1H-imidazol-5-yl)imidazo[1,2-b]pyridazin-2-yl)-2-fluoroisonicotinamide]	5.53 nM
Cc1nc(-c2ccncc2)sc1C(=O)Nc1cn2nc(-c3c(-c4ccc(F)cc4)ncn3C3CN(CCO)C3)ccc2n1 [Compound 152, N-(6-(4-(4-fluorophenyl)-1-(1-(2-hydroxyethyl)azetidin-3-yl)-1H-imidazol-5-yl)imidazo[1,2-b]pyridazin-2-yl)-4-methyl-2-(pyridin-4-yl)thiazole-5-carboxamide]	3.07 nM
O=C(Nc1cn2nc(-c3c(-c4ccc(F)cc4)ncn3C3CCN(CCO)CC3)ccc2n1)c1ccnc2ccccc12 [Compound 111, N-(6-(4-(4-fluorophenyl)-1-(1-(2-hydroxyethyl)piperidin-4-yl)-1H-imidazol-5-yl)imidazo[1,2-b]pyridazin-2-yl)quinoline-4-carboxamide]	0.564 nM
O=C(Nc1cn2nc(-c3c(-c4ccc(F)cc4)ncn3C3COC3)ccc2n1)c1ccnc(F)c1 [Compound 239, 2-fluoro-N-(6-(4-(4-fluorophenyl)-1-(oxetan-3-yl)-1H-imidazol-5-yl)imidazo[1,2-b]pyridazin-2-yl)iso-nicotinamide]	5.18 nM
Cc1nc(-c2ccncc2)sc1C(=O)Nc1cn2nc(-c3c(-c4ccc(F)cc4)ncn3C3CCN(CCO)CC3)ccc2n1 [Compound 105, N-(6-(4-(4-fluorophenyl)-1-(1-(2-hydroxyethyl)piperidin-4-yl)-1H-imidazol-5-yl)imidazo[1,2-b]pyridazin-2-yl)-4-methyl-2-(pyridin-4-yl) thiazole-5-carboxamide]	0.096 nM
O=C(Nc1cn2nc(-c3c(-c4ccc(F)cc4)ncn3C3CCN(C(=O)OCCC(F)(F)F)CC3)ccc2n1)c1ccnc(F)c1 [Compound 83, 3,3,3-trifluoropropyl 4-(5-(2-(2-fluoroisonicotinamido)imidazo[1,2-b]pyridazin-6-yl)-4-(4-fluorophenyl)-1H-imidazol-1-yl)piperidine-1-carboxylate]	0.461 nM
Cc1nc(-c2ccc(F)cc2)c(-c2ccc3nc(NC(=O)c4nc[nH]n4)cn3n2)n1C [Compound 368, N-(6-(4-(4-fluorophenyl)-1,2-dimethyl-1H-imidazol-5-yl)imidazo[1,2-b]pyridazin-2-yl)-1H-1,2,4-triazole-3-carboxamide]	48.4 nM
Cc1nc(-c2ccc(F)cc2)c(-c2ccc3nc(NC(=O)c4ccncc4)cn3n2)n1C [Compound 301, N-(6-(4-(4-Fluorophenyl)-1,2-dimethyl-1H-imidazol-5-yl)imidazo[1,2-b]pyridazin-2-yl)isonicotinamide]	5.29 nM
Cc1nc(-c2cccnc2)sc1C(=O)Nc1cn2nc(-c3c(-c4ccc(F)cc4)ncn3C3CCNCC3)ccc2n1 [Compound 95, N-(6-(4-(4-fluorophenyl)-1-(piperidin-4-yl)-1H-imidazol-5-yl)imidazo[1,2-b]pyridazin-2-yl)-4-methyl-2-(pyridin-3-yl)thiazole-5-carboxamide]	0.17 nM
Cc1nc(-c2ccc(F)cc2)c(-c2ccc3nc(NC(=O)c4ccnc(N)c4)cn3n2)n1C [Compound 323, 2-amino-N-(6-(4-(4-fluoro-phenyl)-1,2-dimethyl-1H-imidazol-5-yl)imidazo[1,2-b]pyridazin-2-yl)isonicotin-amide]	2.68 nM
Cc1nc(-c2ccc(F)cc2)c(-c2ccc3nc(NC(=O)c4ccno4)cn3n2)n1C [Compound 387, N-(6-(4-(4-fluorophenyl)-1,2-dimethyl-1H-imidazol-5-yl)imidazo[1,2-b]pyridazin-2-yl)isoxazole-5-carboxamide]	11.9 nM
Cc1nc(-c2cccnc2)sc1C(=O)Nc1cn2nc(-c3c(-c4ccc(F)cc4)ncn3C3CCN(C)CC3)ccc2n1 [Compound 96]	0.966 nM
Cc1nc(-c2ccc(F)cc2)c(-c2ccc3nc(NC(=O)c4cncn4C)cn3n2)n1C [Compound 360, N-(6-(4-(4-fluorophenyl)-1,2-dimethyl-1H-imidazol-5-yl)imidazo[1,2-b]pyridazin-2-yl)-1-methyl-1H-imidazole-5-carboxamide]	5.38 nM
